Values joined by “and” are separate entries in the source; they are usually repeats but may differ in a detail not shown here. Equal values may be shown once.
Columns and labels:
[1] = tested on: Bacillus subitilisATCC 19659; test: Sporicidal activity of ester PFA versus POAA (Example 23); type: cell-based, Bacillus subtilis; conditions: 20°C, dirty
Description: Additional Bacillus pathogens were used to evaluate the micro efficacy of ester PFA generated according to methods of the present invention in comparison to POAA.

[2] = tested on: Aspergillus brasiliensis ATCC 16404; test: Fungicidal activity of ester PFA, dirty conditions (Example 20); type: cell-based; conditions: 5 minutes
Description: Various Bacillus and Aspergillus pathogens were used to evaluate the micro efficacy of ester PFA generated according to methods of the present invention.

[3] = tested on: Bacillus subitilisATCC 19659; test: Sporicidal activity of ester PFA versus POAA (Example 21); type: cell-based, Bacillus subtilis; conditions: for Average CFU/mL / Log10 Growth / Log10 Reduction: 20°C, dirty
Description: Bacillus pathogens were used to evaluate the micro efficacy of ester PFA generated according to methods of the present invention in comparison to POAA.

[4] = tested on: P. aeruginosa ATCC 15442 biofilm; test: Biofilm disinfectant efficacy, CDC Biofilm Reactor, Single Tube Method (ASTM E2562-12, E2871-12); type: cell-based, Pseudomonas aeruginosa
Description: P. aeruginosa ATCC 15442 biofilm was grown on the surface of 24 polycarbonate coupons following ASTM method E2562-12: Standard Test Method for Quantification of Pseudomonas aeruginosa Biofilm Grown with High Shear and Continuous Flow using CDC Biofilm Reactor. After 48 hours of biofilm establishment, the coupons were removed from the reactor and placed into individual centrifuge tubes. Three coupons per test substance were tested for disinfectant efficacy using ASTM method E2871-12: Standard Test Method for Evaluating Disinfectant Efficacy against Pseudomonas aeruginosa Biofilm Grown in CDC Biofilm Reactor using Single Tube Method. Each coupon was exposed to 4 mL of chemistry for an exposure time of 3 hours. […] This was followed with a series of vortexing and sonicating steps to remove any biofilm from the coupon surface into the solution for plating and enumeration.
P. aeruginosa ATCC 15442 biofilm was grown on the surface of 24 polycarbonate coupons following ASTM method E2562-12: Standard Test Method for Quantification of Pseudomonas aeruginosa Biofilm Grown with High Shear and Continuous Flow using CDC Biofilm Reactor. After 48 hours of biofilm establishment, the coupons were removed from the reactor and placed into individual centrifuge tubes. […]

[5] = tested on: Nalidixic acid resistant E. coli O157:H7; test: Reduction of E. coli on raw beef brisket, dip treatment; type: cell-based; conditions: 10 minutes dip, ambient, 220 ppm POAA / 180 ppm PFA / 50 ppm LAS per formula (Table 15)
Description: Nalidixic acid resistant E. coli O157:H7 was used to evaluate the efficacy in treatment with performic acid composition on raw beef brisket according to the conditions shown in Table 14.
The generation of PFA from the perhydrolysis of glycerol formates, PFA formulations, POAA formations and controls were evaluated as shown in Table 15.

[6] = cited from earlier work
[7] = 300 ppm PFA pH 6.73 / 368 ppm POAA pH 6.88, 5 minutes
[8] = 300 ppm PFA pH 6.73 / 368 ppm POAA pH 6.88, 10 minutes
[9] = 400 ppm PFA pH 6.95 / 490 ppm POAA pH 6.65, 5 minutes
[10] = 400 ppm PFA pH 6.95 / 490 ppm POAA pH 6.65, 10 minutes
[11] = 300 ppm PFA pH 6.84 / 368 ppm POAA pH 6.73 (molar equivalent), 5 minutes
[12] = 300 ppm PFA pH 6.84 / 368 ppm POAA pH 6.73 (molar equivalent), 10 minutes
[13] = 400 ppm PFA pH 7.19 / 490 ppm POAA pH 6.78 (molar equivalent), 5 minutes
[14] = 400 ppm PFA pH 7.19 / 490 ppm POAA pH 6.78 (molar equivalent), 10 minutes

In the case of `O=COO` [PFA, peroxyformic acid], the “Average CFU/mL” value [1, 7] is reported as greater than 3.0E+05 CFU/mL, the “Log10 Growth” value [1, 7] is reported as greater than 5.48 Log10 and the “Log10 Reduction” value [1, 7] is reported as less than 2.26 Log10. The “Average CFU/mL” value [1, 8] was 1.28E+05 CFU/mL, the “Log10 Growth” value [1, 8] was 5.11 Log10 and the “Log10 Reduction” value [1, 8] was 2.63 Log10. The “Average CFU/mL” value [1, 9] was greater than 3.0E+05 CFU/mL, the “Log10 Growth” value [1, 9] was greater than 5.48 Log10 and the “Log10 Reduction” value [1, 9] was less than 2.26 Log10. For the same compound, the “Average CFU/mL” value [1, 10] was 7.50E+04 CFU/mL, the “Log10 Growth” value [1, 10] was 4.88 Log10 and the “Log10 Reduction” value [1, 10] was 2.86 Log10. For the same compound, the “Log10 Growth” value ([2]; 200 ppm PFA pH 5.81, 35°C) was greater than 4.22 Log10, the “Log10 Reduction” value ([2]; 200 ppm PFA pH 5.81, 35°C) was less than 1.89 Log10 and the “Log10 Growth” value ([2]; 250 ppm PFA pH 5.82, 35°C) was 3.55 Log10. For the same compound, the “Log10 Reduction” value ([2]; 250 ppm PFA pH 5.82, 35°C) was 2.56 Log10, the “Log10 Growth” value ([2]; 300 ppm PFA pH 5.91, 35°C) was 3.38 Log10 and the “Log10 Reduction” value ([2]; 300 ppm PFA pH 5.91, 35°C) was 2.73 Log10. The “Log10 Growth” value ([2]; 350 ppm PFA pH 5.88, 35°C) was 3.46 Log10, the “Log10 Reduction” value ([2]; 350 ppm PFA pH 5.88, 35°C) was 2.65 Log10 and the “reduction in B. subtillis spores compared with POAA” value ([3]; 5 and 10 minutes, lower concentrations than POAA, FIG. 17) was “increased reduction”. For the same compound, the “Average CFU/mL” value [3, 11] was 3.25E+03 CFU/mL, the “Log10 Growth” value [3, 11] was 3.51 Log10 and the “Log10 Reduction” value [3, 11] was 2.28 Log10. The “Average CFU/mL” value [3, 12] was 4.50E+01 CFU/mL, the “Log10 Growth” value [3, 12] was 1.65 Log10 and the “Log10 Reduction” value [3, 12] was 4.14 Log10. For the same compound, the “Average CFU/mL” value [3, 13] was 3.45E+03 CFU/mL, the “Log10 Growth” value [3, 13] was 3.54 Log10 and the “Log10 Reduction” value [3, 13] was 2.26 Log10. The “Average CFU/mL” value [3, 14] was 1.30E+03 CFU/mL, the “Log10 Growth” value [3, 14] was 3.11 Log10 and the “Log10 Reduction” value [3, 14] was 2.68 Log10. For the same compound, the “anti-biofilm efficacy compared with POAA” value ([4]; 50 ppm PFA 15 minutes to 3 hours vs 200 ppm POAA 3 hours, FIG. 12) was “greater anti-biofilm efficacy”, the “anti-biofilm efficacy compared with POAA” value ([4]; 3 hours exposure, concentration lower than POAA, FIG. 11) was “significantly greater anti-biofilm efficacy” and the “Average Log CFU/cm2” value [5] was 3.22 Log CFU/cm2. The “Log reduction” value [5] was 0.83 Log, the CFU/cm2 ([5]; single samples) was 1.84E+03 CFU/cm2 and 1.42E+03 CFU/cm2 and 1.72E+03 CFU/cm2 and the CFU/ml ([5]; single samples) was 9.20E+02 CFU/ml and 7.10E+02 CFU/ml and 8.60E+02 CFU/ml. For the same compound, the “Log CFU/cm2” value ([5]; single samples) was 3.26 Log CFU/cm2 and 3.15 Log CFU/cm2 and 3.24 Log CFU/cm2 and the pKa value [6] was 7.2.

From US11684067B2, “Generation of peroxyformic acid through polyhydric alcohol formate” (priority 2014, dated 2023)
